≈ marks a conversion by molar mass, not a printed value. Where two headings read alike, the source gives them in different places. Values belong to the compound of their own block, whether it stands above or below them.
Assays:
β2 adrenergic receptor = β2 adrenergic receptor (Homo sapiens, UniProt P07550); assay: Agonism of the β2 adrenergic receptor (statement, no method given)
[1] = Blood-brain barrier crossing and accumulation in cerebral spinal fluid (statement, no method given)
[2] = Solubility testing in biorelevant media (SGF, FaSSIF, FeSSIF) and water, shaken at 37° C. for up to 24 hours; assay type: physicochemical; conditions: for Solubility (mg/mL) 0.5 h / solubility / solubility at 0.5 h: 37° C.; for solubility / solubility at 0.5 h: 37 °C, thermodynamic from solid; for time until dissolved in each medium: shaking at 37° C., about 15 mg in 3 mL of each of the 4 media; for solubility at 0.5 h: read-out: Solubility (mg/mL) 0.5 h
Procedure: (§1) HPLC analysis was performed with an Agilent HPLC 1260 series instrument.
Compound 1 Form A, Compound 2 Form A and Compound 9 Form A were tested for stability in three biorelevant media and water at 37° C. for 0.5, 2 and 24 hours. About 15 mg of Compound 1 Form A, Compound 2 Form A and Compound 9 Form A were weighted into four separate vials each and to each set of vials was added 3 mL of one of the following biorelevant media: simulated gastric […] fluid (SGF), fasted state simulated intestinal fluid (FaSSIF), fed state simulated intestinal fluid (FeSSIF), and water. All samples were shaken at 200 rpm at 37° C. for up to 24 hours. […] Compound 9 Form A dissolved in each medium after about 15 minutes of shaking at 37° C. Compound 1 Form A dissolved in each medium over the course of about 2 hours of shaking at 37° C. […] The results of the solubility test are summarized below in Table 18: […]

[3] = Solid stability at 60° C. and 40° C./75%RH for 7 days (purity by HPLC, solid form); assay type: physicochemical; conditions: for Purity @ 0 d (Area%): start of solid stability test; for Purity @ 0 d (Area%) / Purity @ 7 d (Area%) 40° C./75%RH / Purity @ 7 d (Area%) 60° C.: HPLC; for Solid form @ 7 d 40° C./75%RH / Purity @ 7 d (Area%) 40° C./75%RH: 7 d at 40° C./75%RH; for Solid form @ 7 d 60° C. / Purity @ 7 d (Area%) 60° C.: 7 d at 60° C.
Procedure: as §1
Solid stability of Compound 1 Form A, Compound 2 Form A and Compound 9 Form A were evaluated at 60° C. and 40° C./75%RH for 7 days. Purity was determined via HPLC. […] All tested compounds retained the same solid form after the 7-day experiment.

[4] = Estimated solubility test: medium added stepwise at rt until the solid dissolved; assay type: physicochemical; conditions: for solubility: thermodynamic from solid
Procedure: As all of the samples dissolved after about 2 hours, estimated solubility testing was conducted, wherein about 5 mg of Compound 1 Form A, Compound 2 Form A and Compound 9 Form A were weighed into four separate vials each and each media was added stepwise while stirring at rt until the solid dissolved.

[5] = Dynamic vapor sorption (DVS) moisture sorption/desorption; assay type: physicochemical; conditions: for XRPD pattern after DVS testing: after DVS full cycle
Procedure: Moisture sorption/desorption data was collected on a DVS Intrinsic (SMS, UK). The sample was placed into a tared sample chamber and automatically weighed. The sample was dried at 40° C. until the dm/dt was less than 0.002% and cooled to 25° C. The instrument parameters were set as detailed below. Step time (min): 60 min; Sample temperature: 25° C.; Cycle: Full cycle; Adsorption: 0, 10, 20, 30, 40, 50, 60, 70, 80, 90; Desorption: 80, 70, 60, 50, 40, 30, 20, 10, 0; Save Data Rate: 5 s; Total flow rate: 200 sccm; Post experiment total flow: 200 sccm.

[6] = SGF, FaSSIF, FeSSIF and water, SGF, FaSSIF, FeSSIF and water, about 15 mg in 3 mL, read-out: solubility in each medium
[7] = FaSSIF, fassif, FaSSIF, shaken 200 rpm, 2 and 24 h, read-out: Solubility (mg/mL) 2 and 24 h
[8] = FaSSIF, fassif, FaSSIF, shaken 200 rpm
[9] = FeSSIF, fessif, FeSSIF, shaken 200 rpm, 2 and 24 h, read-out: Solubility (mg/mL) 2 and 24 h
[10] = FeSSIF, fessif, FeSSIF, shaken 200 rpm
[11] = SGF, simulated gastric fluid, SGF, shaken 200 rpm, 2 and 24 h, read-out: Solubility (mg/mL) 2 and 24 h
[12] = SGF, simulated gastric fluid, SGF, shaken 200 rpm
[13] = water, water, Water, shaken 200 rpm, 2 and 24 h, read-out: Solubility (mg/mL) 2 and 24 h
[14] = water, water, Water, shaken 200 rpm

β2 adrenergic receptor, sequence (P07550 whole entry): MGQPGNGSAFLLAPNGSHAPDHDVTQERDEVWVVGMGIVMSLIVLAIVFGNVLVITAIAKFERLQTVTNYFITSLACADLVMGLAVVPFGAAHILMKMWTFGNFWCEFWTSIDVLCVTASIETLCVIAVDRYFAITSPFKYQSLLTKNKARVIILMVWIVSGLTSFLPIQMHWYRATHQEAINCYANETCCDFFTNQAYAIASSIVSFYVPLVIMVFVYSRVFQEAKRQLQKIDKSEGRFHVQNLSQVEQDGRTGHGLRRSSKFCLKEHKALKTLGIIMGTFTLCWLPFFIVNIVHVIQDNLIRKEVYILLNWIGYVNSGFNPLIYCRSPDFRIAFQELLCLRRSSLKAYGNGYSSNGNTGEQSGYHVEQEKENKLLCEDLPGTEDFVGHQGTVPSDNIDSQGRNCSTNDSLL

- activity at the β2 adrenergic receptor (β2 adrenergic receptor): low concentration partial agonist
- Solubility (mg/mL) 0.5 h ([2]; FaSSIF, shaken 200 rpm, listed as Compound 1 Form A): 4.33 mg/mL (≈ 19.7 mM)
- Solubility (mg/mL) 0.5 h ([2]; FeSSIF, shaken 200 rpm, listed as Compound 1 Form A): 4.41 mg/mL (≈ 20.1 mM)
- Solubility (mg/mL) 0.5 h ([2]; SGF, shaken 200 rpm, listed as Compound 1 Form A): 4.76 mg/mL (≈ 21.7 mM)
- solubility [2, 6]: > 5 mg/mL
- Solubility (mg/mL) 0.5 h ([2]; Water, shaken 200 rpm, listed as Compound 1 Form A): 4.19 mg/mL (≈ 19.1 mM)
- pH 24 h ([2]; pH of solubility sample in FaSSIF at 24 h (control 6.53), listed as Compound 1 Form A): 8.03
- pH 24 h ([2]; pH of solubility sample in FeSSIF at 24 h (control 5.01), listed as Compound 1 Form A): 5.52
- pH 24 h ([2]; pH of solubility sample in SGF at 24 h (control 1.19), listed as Compound 1 Form A): 1.20
- pH 24 h ([2]; pH of solubility sample in water at 24 h (control 5.26), listed as Compound 1 Form A): 10.35
- time until dissolved in each medium ([2]; listed as Compound 1 Form A): about 2 hours
- Purity @ 0 d (Area%) ([3]; listed as Compound 1 Form A): 96.09% Area%
- decrease in purity ([3]; 7 d, under both sets of conditions (60° C. and 40° C./75%RH)): ~ 0.3%
- Solid form @ 7 d 40° C./75%RH [3]: unchanged
- Purity @ 7 d (Area%) 40° C./75%RH ([3]; listed as Compound 1 Form A): 95.78% Area%
- Solid form @ 7 d 60° C. [3]: unchanged
- Purity @ 7 d (Area%) 60° C. ([3]; listed as Compound 1 Form A): 95.76% Area%
- Solubility (mg/mL) FaSSIF ([4]; FaSSIF, listed as Compound 1 Form A): ~6.3 mg/mL (≈ 28.7 mM)
- Solubility (mg/mL) FeSSIF ([4]; FeSSIF, listed as Compound 1 Form A): ~9.1 mg/mL (≈ 41.5 mM)
- Solubility (mg/mL) SGF ([4]; SGF, listed as Compound 1 Form A): ~12.7 mg/mL (≈ 57.9 mM)
- Solubility (mg/mL) Water ([4]; water, listed as Compound 1 Form A): ~5.0 mg/mL (≈ 22.8 mM)
Compound: CC(C)(C)NC[C@H](O)c1cccc(C#N)n1 [Compound 1, (S)-6-(2-(tert-butylamino)-1-hydroxyethyl)picolinonitrile]
- ability to cross the blood-brain barrier and accumulate in the cerebral spinal fluid [1]: unexpectedly high ability to cross the blood-brain barrier

- water uptake at 80%RH ([5]; DVS, 25° C.): 0.58%
- XRPD pattern after DVS testing [5]: remained unchanged
- solubility [2, 7]: > 5 mg/mL
- solubility at 0.5 h [2, 8]: > 5 mg/mL
- solubility [2, 9]: > 5 mg/mL
- solubility at 0.5 h [2, 10]: > 5 mg/mL
- solubility [2, 11]: > 5 mg/mL
- solubility at 0.5 h [2, 12]: > 5 mg/mL
- solubility [2, 6]: > 5 mg/mL
- dissolution in each of the 4 media ([2]; at rt, about 15 mg in 3 mL): dissolved immediately
- pH 24 h ([2]; pH of solubility sample in FaSSIF at 24 h (control 6.53)): 6.47
- pH 24 h ([2]; pH of solubility sample in FeSSIF at 24 h (control 5.01)): 5.01
- pH 24 h ([2]; pH of solubility sample in SGF at 24 h (control 1.19)): 1.11
- pH 24 h ([2]; pH of solubility sample in water at 24 h (control 5.26)): 5.24
- solubility [2, 13]: > 5 mg/mL
- solubility at 0.5 h [2, 14]: > 5 mg/mL
- Purity @ 0 d (Area%) [3]: 99.27% Area%
- Solid form @ 7 d 40° C./75%RH [3]: unchanged
- Purity @ 7 d (Area%) 40° C./75%RH [3]: 99.27% Area%
- Solid form @ 7 d 60° C. [3]: unchanged
- Purity @ 7 d (Area%) 60° C. [3]: 99.25% Area%
- solubility ([4]; FaSSIF, FaSSIF, read-out: Solubility (mg/mL) FaSSIF): > 100 mg/mL
- solubility ([4]; FeSSIF, FeSSIF, read-out: Solubility (mg/mL) FeSSIF): > 100 mg/mL
- solubility ([4]; SGF, simulated gastric fluid, SGF, read-out: Solubility (mg/mL) SGF): > 101 mg/mL
- solubility ([4]; water, water, read-out: Solubility (mg/mL) Water): > 102 mg/mL
Compound: CC(C)(C)NC[C@H](O)c1cccc(C#N)n1.Cl [Compound 2]

- water uptake at 80%RH ([5]; DVS, 25° C.): 1.25%
- water uptake at 90%RH ([5]; DVS, 25° C., 90%RH): 2.77%
- XRPD pattern after DVS testing [5]: remained unchanged
Compound: CC(C)(C)NC[C@H](O)c1cccc(C#N)n1.Cc1ccc(S(=O)(=O)O)cc1 [Compound 5]

- water uptake at 80%RH ([5]; DVS, 25° C.): 1.05%
- XRPD pattern after DVS testing [5]: remained unchanged
- solubility [2, 7]: > 5 mg/mL
- solubility at 0.5 h [2, 8]: > 5 mg/mL
- solubility [2, 9]: > 5 mg/mL
- solubility at 0.5 h [2, 10]: > 5 mg/mL
- solubility [2, 11]: > 5 mg/mL
- solubility at 0.5 h [2, 12]: > 5 mg/mL
- pH 24 h ([2]; pH of solubility sample in FaSSIF at 24 h (control 6.53), listed as Compound 9 Form A): 6.51
- pH 24 h ([2]; pH of solubility sample in FeSSIF at 24 h (control 5.01), listed as Compound 9 Form A): 5.01
- pH 24 h ([2]; pH of solubility sample in SGF at 24 h (control 1.19), listed as Compound 9 Form A): 1.18
- pH 24 h ([2]; pH of solubility sample in water at 24 h (control 5.26), listed as Compound 9 Form A): 5.68
- time until dissolved in each medium ([2]; listed as Compound 9 Form A): About 15 minutes
- solubility [2, 13]: > 5 mg/mL
- solubility at 0.5 h [2, 14]: > 5 mg/mL
- Purity @ 0 d (Area%) ([3]; listed as Compound 9 Form A): 98.62% Area%
- Purity @ 7 d (Area%) 40° C./75%RH ([3]; listed as Compound 9 Form A): 98.49% Area%
- Purity @ 7 d (Area%) 60° C. ([3]; listed as Compound 9 Form A): 98.62% Area%
- Solubility (mg/mL) FaSSIF ([4]; FaSSIF, listed as Compound 9 Form A): >71.4 mg/mL
- Solubility (mg/mL) FeSSIF ([4]; FeSSIF, listed as Compound 9 Form A): >101.4 mg/mL
- Solubility (mg/mL) SGF ([4]; SGF, listed as Compound 9 Form A): >71.4 mg/mL
- Solubility (mg/mL) Water ([4]; water, listed as Compound 9 Form A): >71.3 mg/mL
Compound: CC(C)(C)NC[C@H](O)c1cccc(C#N)n1 [Compound 9]

From patent publication US20230219892A1, “FORMS AND COMPOSITIONS OF A BETA ADRENERGIC AGONIST” (Curasen Therapeutics, Inc., priority 2020, published 2023)
